Calls of active or inactive are those of the source.
Assays:
Cytochrome P450 1A2 = target: T1, Cytochrome P450 1A2 (Homo sapiens, UniProt P05177);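 note: PubChem cytochrome P450 panel assay, CYP1A2 panel member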
T1 sequence (P05177 whole entry): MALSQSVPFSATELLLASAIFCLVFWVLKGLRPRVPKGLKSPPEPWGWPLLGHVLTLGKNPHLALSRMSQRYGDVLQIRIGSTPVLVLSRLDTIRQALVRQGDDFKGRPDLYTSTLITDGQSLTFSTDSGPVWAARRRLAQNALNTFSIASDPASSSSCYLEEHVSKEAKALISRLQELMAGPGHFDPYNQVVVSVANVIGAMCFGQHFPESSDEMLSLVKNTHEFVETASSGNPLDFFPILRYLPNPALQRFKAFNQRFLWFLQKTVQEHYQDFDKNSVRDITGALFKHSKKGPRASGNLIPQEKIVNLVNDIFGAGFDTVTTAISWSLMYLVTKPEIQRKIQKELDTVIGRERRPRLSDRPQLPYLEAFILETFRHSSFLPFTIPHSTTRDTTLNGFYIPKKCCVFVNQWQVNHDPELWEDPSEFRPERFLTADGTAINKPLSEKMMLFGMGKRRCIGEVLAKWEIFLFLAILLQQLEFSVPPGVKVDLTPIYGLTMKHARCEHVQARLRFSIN

[1] = target: Arf-GAP with SH3 domain, ANK repeat and PH domain-containing protein 1 (Homo sapiens, UniProt Q9ULH1); format: functional;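 note: biochemical fluorescence polarization dose–response screen measuring inhibition of ASAP1; ASAP1 GAP domain stimulating GTP hydrolysis by truncated human ARF1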
Cytochrome P450 3A4 = Cytochrome P450 3A4 (Homo sapiens, UniProt P08684);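 note: CYP3A4 tested as one member of a cytochrome P450 panel screen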
[2] = target: T2, Methionyl-tRNA synthetase, putative (Trypanosoma brucei brucei, UniProt Q38C91); format: functional, Trypanosoma brucei brucei strain 927/4 GUTat10.1
T2 sequence (Q38C91 whole entry): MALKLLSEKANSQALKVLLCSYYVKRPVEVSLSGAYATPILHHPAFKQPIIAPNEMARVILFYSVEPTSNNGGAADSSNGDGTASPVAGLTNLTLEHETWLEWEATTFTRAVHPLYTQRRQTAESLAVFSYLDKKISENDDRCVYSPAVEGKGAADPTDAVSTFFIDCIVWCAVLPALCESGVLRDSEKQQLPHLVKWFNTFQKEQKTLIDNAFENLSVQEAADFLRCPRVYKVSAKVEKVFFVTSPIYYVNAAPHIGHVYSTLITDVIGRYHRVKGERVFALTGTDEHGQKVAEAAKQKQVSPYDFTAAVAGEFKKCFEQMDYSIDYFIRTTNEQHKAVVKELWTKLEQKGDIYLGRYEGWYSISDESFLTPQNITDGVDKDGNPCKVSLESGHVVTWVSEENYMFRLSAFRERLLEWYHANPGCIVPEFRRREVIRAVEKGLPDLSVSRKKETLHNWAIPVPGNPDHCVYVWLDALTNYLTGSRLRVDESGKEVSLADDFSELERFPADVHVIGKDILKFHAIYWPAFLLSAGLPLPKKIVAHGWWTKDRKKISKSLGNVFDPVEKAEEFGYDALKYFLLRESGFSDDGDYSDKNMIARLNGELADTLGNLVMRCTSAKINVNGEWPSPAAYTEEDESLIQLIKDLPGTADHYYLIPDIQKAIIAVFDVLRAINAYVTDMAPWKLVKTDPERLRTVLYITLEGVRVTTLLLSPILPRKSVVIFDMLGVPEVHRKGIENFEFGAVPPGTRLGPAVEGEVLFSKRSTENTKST

[3] = target: T2, Methionyl-tRNA synthetase, putative; format: functional, Trypanosoma brucei brucei strain 927/4 GUTat10.1; remark: listed apart in the source
[4] = Counterscreen for inhibitors of Trypanosoma brucei methionyl tRNA synthetase (MetRS): Luminescence-based cell-based high throughput dose response assay to identify compounds that are cytotoxic to Jurkat human T lymphocyte cells.; format: functional
cells [5] = format: functional, cell-based
cells [6] = format: functional, cell-based; remark: listed apart in the source
[7] = target: T3, RNA-binding protein pos-1 (Caenorhabditis elegans, UniProt G5EF15); experiment: disruptors of C. elegans POS-1 RNA interaction – biochemical, fluorescence polarization, dose response (AID 1964);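 note: purified POS-1 fused to maltose binding protein made in E. coli; potency of compounds blocking POS-1 binding to fluorescent RNA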
T3 sequence (G5EF15 whole entry): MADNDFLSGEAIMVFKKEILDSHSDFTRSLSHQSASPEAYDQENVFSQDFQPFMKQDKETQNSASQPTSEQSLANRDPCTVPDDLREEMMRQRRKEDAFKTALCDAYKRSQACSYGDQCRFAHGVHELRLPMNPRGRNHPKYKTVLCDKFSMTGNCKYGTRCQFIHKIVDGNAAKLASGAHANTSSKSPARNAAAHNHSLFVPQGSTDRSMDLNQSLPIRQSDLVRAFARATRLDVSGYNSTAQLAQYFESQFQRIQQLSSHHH

[8] = target: T4, Histone-lysine N-methyltransferase NSD2 (Homo sapiens, UniProt O96028); format: biochemical
T4 sequence (O96028 whole entry): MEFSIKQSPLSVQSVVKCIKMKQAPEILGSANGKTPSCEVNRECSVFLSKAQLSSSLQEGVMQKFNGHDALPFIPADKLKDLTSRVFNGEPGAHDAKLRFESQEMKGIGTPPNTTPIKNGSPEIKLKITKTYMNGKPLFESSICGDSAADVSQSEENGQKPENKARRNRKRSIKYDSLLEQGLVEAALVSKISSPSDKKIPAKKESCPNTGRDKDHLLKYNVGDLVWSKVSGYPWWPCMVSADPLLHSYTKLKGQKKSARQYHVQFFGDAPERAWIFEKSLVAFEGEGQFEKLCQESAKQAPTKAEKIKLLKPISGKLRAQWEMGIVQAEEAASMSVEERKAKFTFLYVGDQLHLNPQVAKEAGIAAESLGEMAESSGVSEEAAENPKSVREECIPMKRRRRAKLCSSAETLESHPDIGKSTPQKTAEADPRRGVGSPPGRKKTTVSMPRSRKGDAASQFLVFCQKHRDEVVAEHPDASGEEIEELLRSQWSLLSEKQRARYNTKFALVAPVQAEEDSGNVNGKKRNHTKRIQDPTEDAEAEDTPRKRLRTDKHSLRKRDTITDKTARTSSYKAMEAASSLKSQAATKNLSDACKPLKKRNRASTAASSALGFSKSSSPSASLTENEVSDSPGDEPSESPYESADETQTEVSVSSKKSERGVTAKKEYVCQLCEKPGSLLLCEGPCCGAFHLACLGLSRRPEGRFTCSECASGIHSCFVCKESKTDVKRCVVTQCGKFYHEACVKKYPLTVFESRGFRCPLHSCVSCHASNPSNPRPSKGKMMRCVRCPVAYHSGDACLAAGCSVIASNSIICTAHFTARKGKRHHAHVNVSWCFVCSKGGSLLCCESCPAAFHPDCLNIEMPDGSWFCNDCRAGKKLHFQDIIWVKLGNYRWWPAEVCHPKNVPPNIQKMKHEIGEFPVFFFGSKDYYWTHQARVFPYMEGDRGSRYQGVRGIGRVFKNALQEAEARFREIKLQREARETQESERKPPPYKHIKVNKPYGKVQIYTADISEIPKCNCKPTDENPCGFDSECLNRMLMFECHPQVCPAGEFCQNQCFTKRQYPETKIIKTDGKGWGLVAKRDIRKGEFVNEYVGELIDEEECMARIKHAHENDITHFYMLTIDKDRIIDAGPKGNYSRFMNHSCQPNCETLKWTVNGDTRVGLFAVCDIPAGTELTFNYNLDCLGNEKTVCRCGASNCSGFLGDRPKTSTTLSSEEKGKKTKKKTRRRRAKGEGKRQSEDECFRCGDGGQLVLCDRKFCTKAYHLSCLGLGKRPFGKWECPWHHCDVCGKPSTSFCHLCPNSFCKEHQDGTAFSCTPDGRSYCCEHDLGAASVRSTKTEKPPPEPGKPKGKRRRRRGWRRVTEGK

[9] = target: T5, Zinc finger protein mex-5 (Caenorhabditis elegans, UniProt Q9XUB2); experiment: potency of MEX-5 RNA-binding blockers – biochemical, C. elegans, fluorescence polarization, dose response (AID 1960)
T5 sequence (Q9XUB2 whole entry): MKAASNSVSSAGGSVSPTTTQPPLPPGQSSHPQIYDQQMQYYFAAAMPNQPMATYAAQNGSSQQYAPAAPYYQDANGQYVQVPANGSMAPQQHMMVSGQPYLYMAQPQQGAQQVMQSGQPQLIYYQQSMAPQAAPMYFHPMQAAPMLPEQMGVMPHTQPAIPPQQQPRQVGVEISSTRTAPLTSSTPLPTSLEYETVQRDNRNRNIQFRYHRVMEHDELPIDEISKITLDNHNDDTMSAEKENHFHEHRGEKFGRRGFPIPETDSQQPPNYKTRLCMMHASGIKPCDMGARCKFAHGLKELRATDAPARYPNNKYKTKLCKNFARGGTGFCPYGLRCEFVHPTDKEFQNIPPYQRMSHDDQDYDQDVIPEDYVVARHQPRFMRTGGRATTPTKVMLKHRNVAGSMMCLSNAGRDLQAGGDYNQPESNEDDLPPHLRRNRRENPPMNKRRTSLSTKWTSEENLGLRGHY

[10] = target: T6, Long-chain-fatty-acid--AMP ligase FadD28 (Mycobacterium tuberculosis, UniProt P9WQ59); experiment: Fluorescence polarization aasay to screen for inhibitors that compete for the binding of FadD28 to a bisubstrate Measured in Biochemical System Using Plate Reader - 2147-01_Inhibitor_Dose_CherryPick_Activity.; format: functional, Mycobacterium tuberculosis H37Rv
T6 sequence (P9WQ59 whole entry): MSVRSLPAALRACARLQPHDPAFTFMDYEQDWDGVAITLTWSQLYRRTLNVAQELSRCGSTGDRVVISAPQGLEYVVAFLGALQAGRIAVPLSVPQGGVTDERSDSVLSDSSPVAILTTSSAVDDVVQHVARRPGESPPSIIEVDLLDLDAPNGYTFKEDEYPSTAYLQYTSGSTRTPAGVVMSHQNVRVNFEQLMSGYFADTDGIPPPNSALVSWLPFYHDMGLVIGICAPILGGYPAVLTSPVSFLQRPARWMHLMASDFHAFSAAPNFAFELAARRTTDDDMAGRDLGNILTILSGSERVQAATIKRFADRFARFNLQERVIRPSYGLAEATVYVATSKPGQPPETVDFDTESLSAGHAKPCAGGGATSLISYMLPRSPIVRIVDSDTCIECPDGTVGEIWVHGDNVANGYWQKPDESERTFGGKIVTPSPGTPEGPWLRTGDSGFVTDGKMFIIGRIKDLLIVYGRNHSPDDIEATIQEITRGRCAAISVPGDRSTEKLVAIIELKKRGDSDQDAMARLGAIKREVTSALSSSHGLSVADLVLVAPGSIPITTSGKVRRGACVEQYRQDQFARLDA

[11] = target: DNA dC->dU-editing enzyme APOBEC-3G (Homo sapiens, UniProt Q9HC16); format: functional;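 note: Dose-response counterscreen measuring inhibition of APOBEC3G DNA deaminase activity, run while confirming APOBEC3A inhibitors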
[12] = target: T7, Heat shock factor protein 1 (Mus musculus, UniProt P38532); experiment: decrease of HSF1-responsive luciferase luminescence – cell-based, NIH3T3, dose retest, confirmation (AID 2382); format: functional;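 note: NIH3T3 fibroblasts with HSF1-driven luciferase reporter stressed by proteasome inhibitor MG132; luminescence from HSF1-driven luciferase expression after 8 hours of MG132 stress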
T7 sequence (P38532 whole entry): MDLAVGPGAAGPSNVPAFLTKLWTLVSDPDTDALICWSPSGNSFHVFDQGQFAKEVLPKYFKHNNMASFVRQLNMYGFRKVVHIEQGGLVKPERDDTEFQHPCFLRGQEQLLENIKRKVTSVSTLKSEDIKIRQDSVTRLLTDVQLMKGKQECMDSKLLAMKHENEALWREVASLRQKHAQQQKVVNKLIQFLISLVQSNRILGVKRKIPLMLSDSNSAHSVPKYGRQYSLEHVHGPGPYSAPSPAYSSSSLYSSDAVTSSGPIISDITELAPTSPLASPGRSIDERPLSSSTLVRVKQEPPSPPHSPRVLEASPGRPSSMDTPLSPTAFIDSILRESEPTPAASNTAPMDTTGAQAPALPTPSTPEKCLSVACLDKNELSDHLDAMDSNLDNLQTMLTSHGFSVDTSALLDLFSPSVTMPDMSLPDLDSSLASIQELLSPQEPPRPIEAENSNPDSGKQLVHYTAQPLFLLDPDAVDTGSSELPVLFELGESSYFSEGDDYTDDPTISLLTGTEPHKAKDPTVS

[13] = target: DNA dC->dU-editing enzyme APOBEC-3A (Homo sapiens, UniProt P31941); experiment: Dose Response confirmation of small molecule APOBEC3A DNA Deaminase Inhibitors via a fluorescence-based single-stranded DNA deaminase assay. [Related pubchem assays (depositor defined):AID493011, AID493024]; format: functional
DNA dC->dU-editing enzyme APOBEC-3A, sequence (P31941 whole entry): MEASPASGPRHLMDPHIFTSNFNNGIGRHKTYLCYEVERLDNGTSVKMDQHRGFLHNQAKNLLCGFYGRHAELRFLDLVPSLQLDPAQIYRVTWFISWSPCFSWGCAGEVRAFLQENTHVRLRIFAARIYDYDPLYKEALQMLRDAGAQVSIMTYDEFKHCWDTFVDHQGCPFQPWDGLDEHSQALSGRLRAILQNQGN

Arf-GAP with SH3 domain, ANK repeat and PH domain-containing protein 1, sequence (Q9ULH1 whole entry, the tested form may be a part): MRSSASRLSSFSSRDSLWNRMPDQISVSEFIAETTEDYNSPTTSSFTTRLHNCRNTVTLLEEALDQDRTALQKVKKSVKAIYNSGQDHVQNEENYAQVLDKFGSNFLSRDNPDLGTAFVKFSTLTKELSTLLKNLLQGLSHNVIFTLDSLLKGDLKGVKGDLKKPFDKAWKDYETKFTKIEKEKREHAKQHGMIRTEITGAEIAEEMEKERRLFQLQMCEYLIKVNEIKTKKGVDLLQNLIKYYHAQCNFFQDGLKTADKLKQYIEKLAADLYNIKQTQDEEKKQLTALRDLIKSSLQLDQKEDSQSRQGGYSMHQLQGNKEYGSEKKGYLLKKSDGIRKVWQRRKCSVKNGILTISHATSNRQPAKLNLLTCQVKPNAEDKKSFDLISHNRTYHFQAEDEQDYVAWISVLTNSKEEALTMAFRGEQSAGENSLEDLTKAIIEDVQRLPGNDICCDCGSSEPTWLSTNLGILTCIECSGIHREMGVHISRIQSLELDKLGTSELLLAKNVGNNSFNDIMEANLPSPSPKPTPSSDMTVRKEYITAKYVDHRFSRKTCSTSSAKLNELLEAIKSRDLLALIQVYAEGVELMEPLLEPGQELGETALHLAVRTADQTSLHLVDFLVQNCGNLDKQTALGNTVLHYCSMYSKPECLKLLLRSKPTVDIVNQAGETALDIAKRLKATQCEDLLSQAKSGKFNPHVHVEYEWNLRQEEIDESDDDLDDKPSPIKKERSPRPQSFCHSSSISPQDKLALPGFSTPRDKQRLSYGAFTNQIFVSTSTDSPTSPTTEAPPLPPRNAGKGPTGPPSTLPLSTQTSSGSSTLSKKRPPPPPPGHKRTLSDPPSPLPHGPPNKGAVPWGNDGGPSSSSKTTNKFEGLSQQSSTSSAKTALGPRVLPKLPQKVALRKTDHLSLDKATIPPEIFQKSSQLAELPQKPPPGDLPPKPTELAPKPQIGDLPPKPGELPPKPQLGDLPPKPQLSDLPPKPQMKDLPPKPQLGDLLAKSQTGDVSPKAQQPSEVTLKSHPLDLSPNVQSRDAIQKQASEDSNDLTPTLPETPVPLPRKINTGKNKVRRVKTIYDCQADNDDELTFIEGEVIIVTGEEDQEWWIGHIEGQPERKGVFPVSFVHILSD
DNA dC->dU-editing enzyme APOBEC-3G, sequence (Q9HC16 whole entry): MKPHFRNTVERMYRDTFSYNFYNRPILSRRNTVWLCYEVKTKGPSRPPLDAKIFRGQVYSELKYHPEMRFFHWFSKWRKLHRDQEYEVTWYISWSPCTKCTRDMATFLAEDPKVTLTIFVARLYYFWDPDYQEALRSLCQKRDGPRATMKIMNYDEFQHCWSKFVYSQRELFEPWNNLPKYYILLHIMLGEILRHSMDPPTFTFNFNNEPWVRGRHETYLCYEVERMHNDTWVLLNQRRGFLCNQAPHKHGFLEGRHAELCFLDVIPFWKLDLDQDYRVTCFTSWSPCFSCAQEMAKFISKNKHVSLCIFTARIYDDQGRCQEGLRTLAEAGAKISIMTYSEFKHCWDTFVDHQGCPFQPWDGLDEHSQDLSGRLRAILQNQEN
Cytochrome P450 3A4, sequence (P08684 whole entry): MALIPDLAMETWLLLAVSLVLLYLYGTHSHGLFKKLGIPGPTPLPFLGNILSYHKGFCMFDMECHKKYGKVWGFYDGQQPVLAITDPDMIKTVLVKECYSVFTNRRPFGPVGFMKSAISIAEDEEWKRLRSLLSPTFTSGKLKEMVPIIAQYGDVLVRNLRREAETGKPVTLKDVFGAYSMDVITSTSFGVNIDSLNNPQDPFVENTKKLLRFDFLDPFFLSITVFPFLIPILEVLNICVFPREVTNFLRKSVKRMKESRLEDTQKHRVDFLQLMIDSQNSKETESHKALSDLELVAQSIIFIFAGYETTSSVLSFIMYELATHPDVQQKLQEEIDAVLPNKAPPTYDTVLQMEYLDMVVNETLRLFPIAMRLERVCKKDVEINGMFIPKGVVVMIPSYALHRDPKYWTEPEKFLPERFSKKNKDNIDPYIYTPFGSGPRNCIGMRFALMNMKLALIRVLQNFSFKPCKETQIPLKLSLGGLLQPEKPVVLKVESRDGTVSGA

Which results are given for `CCOc1ccc(C(=O)Nc2cccc(-c3cc4ccccc4oc3=O)c2)cc1[N+](=O)[O-]`?
AC50 (Cytochrome P450 1A2): 5.62 µM (inconclusive); IC50 [1]: 37.9 µM (inactive); AC50 (Cytochrome P450 3A4): 10 µM (inconclusive)

Which results are given for `OC(c1cc(Cl)cc(Cl)c1)c1nc(-c2cccc(F)c2)c[nH]1` (configuration not stated)?
IC50 [2]: 10.6 µM (inactive); IC50 [3]: 7.94 µM (active); IC50 [4]: 83.3 µM (inactive)

What does the source list for `Cn1nc(C(F)(F)F)c(-c2cccc(C(F)(F)F)c2)c1NC(=O)Nc1ccc(F)cc1`?
IC50 [2]: 119 µM (inactive); IC50 [3]: 10.4 µM (inactive); IC50 [4]: 28.9 µM (inactive)

What does the source list for `COc1ccc(/C=N/CC2OCCc3ccccc32)cc1OC` (configuration not stated)?
EC50 (cells [5]): > 29.9 µM (inactive); IC50 (cells [6]): > 29.9 µM (inactive)

Which EC50 (cells [5]) does the source give for `Oc1c(C(c2ccc(F)cc2)N2CCc3ccccc3C2)sc2ncnn12` (configuration not stated) here?
The EC50 was > 29.9 µM (inactive).

And the IC50 (cells [6])?
The IC50 was > 29.9 µM (inactive).

What does the source list for `O=C(Cc1ccc(Cl)c(Cl)c1)Nc1cccc(S(=O)(=O)N2CCOCC2)c1`?
IC50 [2]: 7.78 µM (active); IC50 [3]: 4.48 µM (active); IC50 [4]: 34.8 µM (inactive)

For `Clc1ccc(Cn2cc(/C=N/n3cnnc3)c3ccccc32)c(Cl)c1`, which IC50 [1] is on record?
The IC50 was 12.9 µM (inactive).

For `O=C(COc1cccc(-n2cnnn2)c1)Nc1ccccc1`, which IC50 [2] is on record?
Its IC50 is 76 µM (inactive).

What about the IC50 [3] of the same compound?
The IC50 was 38.2 µM (inactive).

What about the IC50 [4] of the same compound?
The IC50 was 83.3 µM (inactive).

What does the source list for `O=C(O)c1cccc(-n2cccc2/C=C\[N+](=O)[O-])c1`?
EC50 [7]: 83.7 µM (active); AC50 [8]: > 20 µM (inactive); EC50 [9]: 40.8 µM (active)

Which AC50 [10] does the source give for `CCOC(=O)C1CCCN(C(=O)c2cc(Nc3ccc(OC)cc3)nc3ccccc23)C1` (configuration not stated) here?
Its AC50 is 30.5 µM (active).

Which IC50 [11] does the source give for `CCOc1ccc2c(c1)[N+](C)(C)C(C)(C)C=C2C` here?
The IC50 was 3.2 µM (active).

What about the EC50 [12] of the same compound?
Its EC50 is > 195 µM (not active).

What about the IC50 [13] of the same compound?
The IC50 was 2.96 µM (active).
